Each structure is given as a SMILES string.

The experiment deals with T1, α5β2γ2 subtype GABAAR (Homo sapiens, UniProt P18507+P31644).
T1 construct: expressed in transfected cells
T1 sequence (P31644 32-462): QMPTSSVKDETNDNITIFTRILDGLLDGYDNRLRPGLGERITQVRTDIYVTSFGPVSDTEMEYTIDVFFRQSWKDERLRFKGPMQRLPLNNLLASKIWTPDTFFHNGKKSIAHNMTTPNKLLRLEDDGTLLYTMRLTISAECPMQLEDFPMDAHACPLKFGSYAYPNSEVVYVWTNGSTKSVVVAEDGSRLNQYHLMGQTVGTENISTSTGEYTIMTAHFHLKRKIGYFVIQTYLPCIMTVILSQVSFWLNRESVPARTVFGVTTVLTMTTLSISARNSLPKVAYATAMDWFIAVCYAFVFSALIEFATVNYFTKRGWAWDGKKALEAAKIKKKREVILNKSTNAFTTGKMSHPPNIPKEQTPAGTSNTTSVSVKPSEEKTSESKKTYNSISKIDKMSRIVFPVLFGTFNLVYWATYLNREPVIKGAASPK
T1 sequence (P47870 25-512 partner limits assumed): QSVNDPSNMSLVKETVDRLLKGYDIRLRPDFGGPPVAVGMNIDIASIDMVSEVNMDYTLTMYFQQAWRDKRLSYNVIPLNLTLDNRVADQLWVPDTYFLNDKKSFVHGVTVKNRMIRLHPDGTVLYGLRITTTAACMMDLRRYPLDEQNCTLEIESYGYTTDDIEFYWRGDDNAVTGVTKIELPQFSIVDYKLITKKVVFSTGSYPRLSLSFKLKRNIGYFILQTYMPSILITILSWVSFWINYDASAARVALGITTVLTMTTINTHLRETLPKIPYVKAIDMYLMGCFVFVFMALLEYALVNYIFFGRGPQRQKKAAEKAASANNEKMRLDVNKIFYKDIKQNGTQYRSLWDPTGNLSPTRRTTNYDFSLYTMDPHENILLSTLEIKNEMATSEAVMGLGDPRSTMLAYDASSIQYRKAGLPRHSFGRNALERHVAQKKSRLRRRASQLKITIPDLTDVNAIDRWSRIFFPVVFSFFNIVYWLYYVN
T1 sequence (P18507 40-467 limits assumed): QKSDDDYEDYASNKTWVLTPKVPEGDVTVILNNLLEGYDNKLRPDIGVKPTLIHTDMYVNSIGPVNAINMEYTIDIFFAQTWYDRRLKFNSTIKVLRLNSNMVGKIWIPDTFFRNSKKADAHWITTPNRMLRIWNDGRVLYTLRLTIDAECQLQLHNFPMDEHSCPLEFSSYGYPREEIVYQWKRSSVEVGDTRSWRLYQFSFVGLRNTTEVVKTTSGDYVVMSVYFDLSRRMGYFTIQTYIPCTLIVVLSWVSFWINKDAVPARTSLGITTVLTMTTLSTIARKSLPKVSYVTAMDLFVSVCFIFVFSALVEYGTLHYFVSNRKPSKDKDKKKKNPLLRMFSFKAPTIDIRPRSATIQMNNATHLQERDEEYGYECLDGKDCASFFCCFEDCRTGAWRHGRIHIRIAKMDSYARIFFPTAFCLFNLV
Briefly: Positive allosteric modulator activity: potentiation of EC20 GABA current in oocytes. It counts as cell-based. The settings on record: read-out: GABA α5 Functional Data (potentiation), @ 100 nM, reported as ranges. As to the method: (B) Positive Allosteric Modulator Activity of Test Compounds on α5β2γ2 Subtype GABAAR
On day 1, 1 ng/32 nL of GABAA α5β2γ2 cDNA was injected into one oocyte. Test starts on day 2. The cDNA injected to the oocytes was a mix of alpha, beta and gamma, their ratio is 1:1:10 (by weight) and the total weight of the mixed 3 subunits to be injected in one oocyte was 1 ng in 32 nl volume. The injected oocytes can also be tested on day 3. In such case, the cDNA amount injected to the oocytes should be reduced by 20%.
Compounds of the present invention were tested using the following procedures.
• 1). 8 oocytes were placed in 8 chambers of OpusXpress and superfused with Modified Barth's Saline (MBS) at 3 mL/min. Glass electrodes back-filled with 3M KCl (0.5-3 megaohms) were used.
Control test (Diazepam or methyl 3,5-diphenylpyridazine-4-carboxylate) • 1). New oocytes was used to run new test. • 2). […] Oocytes were washed with MBS for 5-10 min. • 4). […] Itest was divided by IGABA to obtain potentiation (%). Test Compounds at Multiple Doses • 1). Repeat the above steps 1), 2) and 3) in the control test. • 2). […] Divide Itest by IGABA to obtain potentiation (%). • 3). Discard all tested oocytes, new oocytes were used and the above steps 1) and 2) were repeated to test second concentration of the same compound. Each oocyte was used for only one concentration test for a single test compound. The steps were repeated for other test compounds.

For `COc1ccc2c(c1)-c1nnc(COCc3cccc(F)c3)n1Cc1c(-c3noc(C(C)C)n3)ncn1-2` [Compound 183], the activation at 0.1 µM was 20 to 50%. Consider `COc1ccc2c(c1)-c1nnc(COCc3ccccc3F)n1Cc1c(-c3noc(C(C)C)n3)ncn1-2` [Compound 184], for which the activation at 0.1 µM fell in the range of 20 to 50%.

As for `CC(C)c1nc(-c2ncn3c2Cn2c(COc4cccnc4)nnc2-c2cc(F)ccc2-3)no1` [Compound 185], the activation at 0.1 µM is > 50%. Turning to `COCc1nnc2n1Cc1c(-c3noc(C(C)C)n3)ncn1-c1ccc(F)cc1-2` [Compound 186], the activation at 0.1 µM is > 50%. Turning to `CCOCc1nnc2n1Cc1c(-c3noc(C(C)C)n3)ncn1-c1ccc(F)cc1-2` [Compound 187], the activation at 0.1 µM lay in the range of 20 to 50%. In the case of `CC(C)c1nc(-c2ncn3c2Cn2c(COc4cccc(F)c4)nnc2-c2cc(F)ccc2-3)no1` [Compound 188] it was 20 to 50%; in that of `CC(C)c1nc(-c2ncn3c2Cn2c(COc4ccc(F)cc4)nnc2-c2cc(F)ccc2-3)no1` [Compound 189], 20 to 50%. For `Cc1cccc(C)c1OCc1nnc2n1Cc1c(-c3noc(C(C)C)n3)ncn1-c1ccc(F)cc1-2` [Compound 190] the value was 5 to 20%; for `COc1ccc2c(c1)-c1nnc(COc3ccc(F)cc3)n1Cc1c(C#N)ncn1-2` [Compound 191], 20 to 50%. Regarding `CCc1nc(-c2ncn3c2Cc2c(Cc4ccccc4)nnn2-c2cc(OC)ccc2-3)no1` [Compound 194], the activation at 0.1 µM was > 50%.

On to `CCc1nc(-c2ncn3c2Cc2c(Cc4ccc(F)cc4)nnn2-c2cc(OC)ccc2-3)no1` [Compound 195], for which the activation at 0.1 µM is 20 to 50%. For the molecule `COc1ccc2c(c1)-c1nnc(COc3cccc(F)c3)n1Cc1c(C#N)ncn1-2` [Compound 196], the activation at 0.1 µM was in the range of 20 to 50%. For `COCc1nnc2n1Cc1c(-c3nc(C)no3)ncn1-c1ccc(Cl)cc1-2` [Compound 198], the activation at 0.1 µM fell in the range of 20 to 50%.

With `FC(F)=Cc1ncn2c1Cn1c(COc3ccccc3)nnc1-c1cc(Cl)ccc1-2` [Compound 199], the activation at 0.1 µM lay in the range of 20 to 50%. `FC(F)c1ncn2c1Cn1c(COc3ccccc3)nnc1-c1cc(Cl)ccc1-2` [Compound 200]: the activation at 0.1 µM lay within 5 to 20%. As to `Clc1ccc2c(c1)-c1nnc(COc3ccccc3)n1Cc1c(Br)ncn1-2` [Compound 202], the activation at 0.1 µM lay within 20 to 50%.

Consider `COc1ccc2c(c1)-c1nnc(COCc3cccnc3)n1Cc1c(-c3noc(C(C)C)n3)ncn1-2` [Compound 203], for which the activation at 0.1 µM fell in the range of 20 to 50%. As for `C#Cc1ncn2c1Cn1c(COc3ccccc3)nnc1-c1cc(Cl)ccc1-2` [Compound 205], the activation at 0.1 µM lay within 20 to 50%. With `COCc1nnc2n1Cc1c(-c3nc(C(C)C)no3)ncn1-c1ccc(Cl)cc1-2` [Compound 206], the activation at 0.1 µM was 5 to 20%. With `COc1ccc2c(c1)-n1nnc(Cc3ccccc3)c1Cc1c(C#N)ncn1-2` [Compound 207], the activation at 0.1 µM lay in the range of 20 to 50%.

Consider `COc1ccc2c(c1)-n1nnc(Cc3cccnc3)c1Cc1c(C#N)ncn1-2` [Compound 210], for which the activation at 0.1 µM lay in the range of 20 to 50%. Turning to `COc1ccc2c(c1)-n1nnc(C)c1Cc1c(Br)ncn1-2` [Compound 211], the activation at 0.1 µM lay within 5 to 20%.

As for `COc1ccc2c(c1)-n1nnc(Cc3ccccc3)c1Cc1c(Br)ncn1-2` [Compound 212], the activation at 0.1 µM is 20 to 50%. In the case of `COc1ccc2c(c1)-n1nnc(Cc3ccc(F)cc3)c1Cc1c(Br)ncn1-2` [Compound 213], the activation at 0.1 µM lay within 20 to 50%. For the molecule `CCOCc1ncn2c1Cn1c(COC)nnc1-c1cc(Cl)ccc1-2` [Compound 215], the activation at 0.1 µM fell in the range of 5 to 20%. Turning to `COCc1nnc2n1Cc1c(Br)ncn1-c1ccc(Cl)cc1-2` [Compound 217], the activation at 0.1 µM fell in the range of 5 to 20%. With `COc1ccc2c(c1)-n1nnc(COc3ccc(F)cc3)c1Cc1c(C#N)ncn1-2` [Compound 222], the activation at 0.1 µM lay in the range of 20 to 50%. On to `COc1ccc2c(c1)-n1nnc(COc3ccccc3F)c1Cc1c(C#N)ncn1-2` [Compound 223], for which the activation at 0.1 µM fell in the range of 5 to 20%. For `COc1ccc2c(c1)-n1nnc(COc3ccccc3)c1Cc1c(C#N)ncn1-2` [Compound 224], the activation at 0.1 µM lay in the range of 20 to 50%.

On to `COc1ccc2c(c1)-n1nnc(COc3cccc(Br)c3)c1Cc1c(C#N)ncn1-2` [Compound 225], for which the activation at 0.1 µM fell in the range of 20 to 50%. In the case of `N#Cc1ncn2c1Cc1c(COc3ccccc3)nnn1-c1cc(Cl)ccc1-2` [Compound 226], the activation at 0.1 µM lay in the range of 20 to 50%. Take `N#Cc1ncn2c1Cc1c(COc3cccc(F)c3)nnn1-c1cc(Cl)ccc1-2` [Compound 227]: the activation at 0.1 µM fell in the range of 5 to 20%.

For `Fc1ccc2c(c1)-n1cnc(Br)c1Cc1c(Cc3ccccc3)nnn1-2` [Compound 229], the activation at 0.1 µM fell in the range of 5 to 20%. For `COc1ccc2c(c1)-c1nnc(COc3ccccc3)n1Cc1c(Br)ncn1-2` [Compound 232], the activation at 0.1 µM was 5 to 20%. For `COCc1nnc2n1Cc1c(-c3cc(C)no3)ncn1-c1ccc(Cl)cc1-2` [Compound 233], the activation at 0.1 µM is 5 to 20%. On to `C#Cc1ncn2c1Cn1c(COc3ccccc3)nnc1-c1cc(OC)ccc1-2` [Compound 236], for which the activation at 0.1 µM lay within 5 to 20%. Turning to `COCc1nnc2n1Cc1c(C3=NCCO3)ncn1-c1ccc(Cl)cc1-2` [Compound 238], the activation at 0.1 µM was 20 to 50%. For `C#Cc1ncn2c1Cn1c(COc3cccnc3)nnc1-c1cc(OC)ccc1-2` [Compound 241], the activation at 0.1 µM lay in the range of 5 to 20%.

With `COCc1nnc2n1Cc1c(C3=NC(c4ccccc4)CO3)ncn1-c1ccc(Cl)cc1-2` (centres unmarked) [Compound 242], the activation at 0.1 µM was in the range of 5 to 20%. `COCc1nnc2n1Cc1c(C3=NC(C)CO3)ncn1-c1ccc(Cl)cc1-2` (centres unmarked) [Compound 243]: the activation at 0.1 µM was 20 to 50%. Take `COCc1nnc2n1Cc1c(-c3nc(C)co3)ncn1-c1ccc(Cl)cc1-2` [Compound 244]: the activation at 0.1 µM lay within 5 to 20%. Regarding `COCc1nnc2n1Cc1c(-c3nc(-c4ccccc4)co3)ncn1-c1ccc(Cl)cc1-2` [Compound 245], the activation at 0.1 µM lay within 5 to 20%.

Regarding `COCc1nnc2n1Cc1c(-c3ncco3)ncn1-c1ccc(Cl)cc1-2` [Compound 249], the activation at 0.1 µM was 20 to 50%.

Take `COCc1nnc2n1Cc1c(C3=N[C@@H](c4ccccc4)CO3)ncn1-c1ccc(Cl)cc1-2` [Compound 264]: the activation at 0.1 µM fell in the range of 20 to 50%.

As to `CC(C)OCc1nnc2n1Cc1c(C3=N[C@H](c4ccccc4)CO3)ncn1-c1ccc(Cl)cc1-2` [Compound 268], the activation at 0.1 µM was in the range of 5 to 20%. In the case of `CCOCc1nnc2n1Cc1c(C3=N[C@H](c4ccccc4)CO3)ncn1-c1ccc(Cl)cc1-2` [Compound 271], the activation at 0.1 µM was > 50%. As to `COCc1nnc2n1Cc1c(C#Cc3ccccc3)ncn1-c1ccc(Cl)cc1-2` [Compound 285], the activation at 0.1 µM lay within 5 to 20%. Take `COc1ccc2c(c1)-n1nncc1Cc1c(C3=N[C@H](c4ccccc4)CO3)ncn1-2` [Compound 290]: the activation at 0.1 µM was 20 to 50%. As to `COCc1nnc2n1Cc1c(C#Cc3ccccc3C)ncn1-c1ccc(Cl)cc1-2` [Compound 293], the activation at 0.1 µM was in the range of 20 to 50%. For `C#Cc1ccc2c(c1)-c1nnc(COC)n1Cc1c(C3=N[C@@H](c4ccccc4)CO3)ncn1-2` [Compound 301], the activation at 0.1 µM fell in the range of 5 to 20%.

The values above are taken from patent publication US12528819B2 (priority 2016, dated 2026).
